Measurements reported in patent US10987359B2, “Oxadiazepinone derivatives and methods of treating hepatitis B infections” (priority 2016, dated 2021).

Tested on: HBV
Test: HBV replication inhibition assay (BDNA assay) in HepG2.2.15 cells
Assay type: cell-based
Conditions: HBV replication assay (BDNA assay), HepG2.2.15 cells; read-out: DNA EC50
Procedure, shortened: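 Supernatant encapsidated HBV DNA was measured by bDNA after DNase digestion and proteinase K release. Stably HBV-integrated HepG2.2.15 cells had two 3-day compound exposures (0.5% DMSO). Signals were background-subtracted and normalized to DMSO wells, and EC50 was obtained by four-parameter fit.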

SMILES	EC50 [nM]
C[C@@H]1Cc2nn3c(c2CN1C(=O)Nc1ccc(F)c(C(F)(F)F)c1)C(=O)N(C)OC(CO)C3 (stereo in doubt) [Compound 082_E2, (4R*,9R)—N-(4-fluoro-3-(trifluoromethyl)phenyl)-4-(hydroxymethyl)-2,9-dimethyl-1-oxo-1,4,5,8,9,11-hexahydropyrido[4′,3′:3,4]pyrazolo[5,1-d][1,2,5]oxadiazepine-10(2H)-carboxamide]	1 to 100
C[C@@H]1Cc2nn3c(c2CN1C(=O)Nc1ccc(F)c(C#N)c1)C(=O)N(C)OC(CO)C3 (stereo in doubt) [Compound 084_E2, (4R*,9R)—N-(3-cyano-4-fluorophenyl)-4-(hydroxymethyl)-2,9-dimethyl-1-oxo-1,4,5,8,9,11-hexahydropyrido[4′,3′:3,4]pyrazolo [5,1-d][1,2,5]oxadiazepine-10(2H)-carboxamide]	1 to 100
C[C@@H]1Cc2nn3c(c2CN1C(=O)Nc1ccc(F)c(C(F)(F)F)c1)C(=O)N(C)OC(CF)C3 (stereo in doubt) [Compound 085_E2, (4R*,9R)—N-(4-fluoro-3-(trifluoromethyl)phenyl)-4-(fluoromethyl)-2,9-dimethyl-1-oxo-1,4,5,8,9,11-hexahydropyrido[4′,3′:3,4]pyrazolo[5,1-d][1,2,5]oxadiazepine-10(2H)-carboxamide]	1 to 100
Cc1cc(NC(=O)N2Cc3c(nn4c3C(=O)N(C)OC(CF)C4)C[C@H]2C)ccc1F (stereo in doubt) [Compound 086_E2, (4R*,9R)—N-(4-fluoro-3-methylphenyl)-4-(fluoromethyl)-2,9-dimethyl-1-oxo-1,4,5,8,9,11-hexahydropyrido[4′,3′:3,4]pyrazolo[5,1-d][1,2,5]oxadiazepine-10(2H)-carboxamide]	1 to 100

Same assay, conditions: Hepatitis B virus, HepG2.2.15, HBV replication assay (BDNA assay), HepG2.2.15 cells; read-out: DNA EC50

SMILES	EC50 [nM]
CN1OC(CNCC(F)F)Cn2nc3c(c2C1=O)CN(C(=O)Nc1ccc(F)c(C(F)(F)F)c1F)CC3 (single isomer, unassigned) [Compound 191_E1, (S*)—N-(2,4-difluoro-3-(trifluoromethyl)phenyl)-4-(((2,2-difluoroethyl)amino)methyl)-2-methyl-1-oxo-1,4,5,8,9,11-hexahydropyrido[4′,3′:3,4]pyrazolo[5,1-d][1,2,5]oxadiazepine-10(2H)-carboxamide]	1 to 100
CN1OC(CNCC(F)F)Cn2nc3c(c2C1=O)CN(C(=O)Nc1cc(Cl)c(F)cc1F)CC3 (single isomer, unassigned) [Compound 192_E1, (S*)—N-(5-chloro-2,4-difluorophenyl)-4-(((2,2-difluoroethyl)amino)methyl)-2-methyl-1-oxo-1,4,5,8,9,11-hexahydropyrido[4′,3′:3,4]pyrazolo[5,1-d][1,2,5]oxadiazepine-10(2H)-carboxamide]	1 to 100
CN1OC(CNCC(F)F)Cn2nc3c(c2C1=O)CN(C(=O)Nc1cc(Br)c(F)cc1F)CC3 (single isomer, unassigned) [Compound 193_E1, (S*)—N-(5-bromo-2,4-difluorophenyl)-4-(((2,2-difluoroethyl)amino)methyl)-2-methyl-1-oxo-1,4,5,8,9,11-hexahydropyrido[4′,3′:3,4]pyrazolo[5,1-d][1,2,5]oxadiazepine-10(2H)-carboxamide]	1 to 100
CN1OC(COCC(F)(F)F)Cn2nc3c(c2C1=O)CN(C(=O)Nc1ccc(F)c(C#N)c1)CC3 (single isomer, unassigned) [Compound 211, (S*)—N-(3-cyano-4-fluorophenyl)-2-methyl-1-oxo-4-((2,2,2-trifluoroethoxy)methyl)-1,4,5,8,9,11-hexahydropyrido[4′,3′:3,4]pyrazolo[5,1-d][1,2,5]oxadiazepine-10(2H)-carboxamide]	1 to 100
CN1OC(COCC(F)F)Cn2nc3c(c2C1=O)CN(C(=O)Nc1ccc(F)c(C(F)(F)F)c1)CC3 (single isomer, unassigned) [Compound 212, (S*)-4-((2,2-difluoroethoxy)methyl)-N-(4-fluoro-3-(trifluoromethyl)phenyl)-2-methyl-1-oxo-1,4,5,8,9,11-hexahydropyrido[4′,3′:3,4]pyrazolo[5,1-d][1,2,5]oxadiazepine-10(2H)-carboxamide]	1 to 100
CN1O[C@H](C[S@+](C)[O-])Cn2nc3c(c2C1=O)CN(C(=O)Nc1ccc(F)c(Cl)c1)CC3 (stereo in doubt) [Compound 049_E1, (S*)—N-(3-chloro-4-fluorophenyl)-2-methyl-4-(((S*)-methylsulfinyl)methyl)-1-oxo-1,4,5,8,9,11-hexahydropyrido[4′,3′:3,4]pyrazolo[5,1-d][1,2,5]oxadiazepine-10(2H)-carboxamide]	100 to 500
CN1O[C@H](C[S@@+](C)[O-])Cn2nc3c(c2C1=O)CN(C(=O)Nc1ccc(F)c(Cl)c1)CC3 (stereo in doubt) [Compound 049_E2, (S*)—N-(3-chloro-4-fluorophenyl)-2-methyl-4-(((R*)-methylsulfinyl)methyl)-1-oxo-1,4,5,8,9,11-hexahydropyrido[4′,3′:3,4]pyrazolo[5,1-d][1,2,5]oxadiazepine-10(2H)-carboxamide]	1 to 100
CN1O[C@@H](C[S@@+](C)[O-])Cn2nc3c(c2C1=O)CN(C(=O)Nc1ccc(F)c(Cl)c1)CC3 (stereo in doubt) [Compound 049_E3, (R*)—N-(3-chloro-4-fluorophenyl)-2-methyl-4-(((R*)-methylsulfinyl)methyl)-1-oxo-1,4,5,8,9,11-hexahydropyrido[4′,3′:3,4]pyrazolo[5,1-d][1,2,5]oxadiazepine-10(2H)-carboxamide]	1 to 100
CN1O[C@@H](C[S@+](C)[O-])Cn2nc3c(c2C1=O)CN(C(=O)Nc1ccc(F)c(Cl)c1)CC3 (stereo in doubt) [Compound 049_E4, (R*)—N-(3-chloro-4-fluorophenyl)-2-methyl-4-(((S*)-methylsulfinyl)methyl)-1-oxo-1,4,5,8,9,11-hexahydropyrido[4′,3′:3,4]pyrazolo[5,1-d][1,2,5]oxadiazepine-10(2H)-carboxamide]	100 to 500
C[C@H]1Cc2nn3c(c2CN1C(=O)Nc1ccc(F)c(Cl)c1)C(=O)N(C)O[C@H](CO)C3 (stereo in doubt) [Compound 069_E1, (4S*,9S*)—N-(3-chloro-4-fluorophenyl)-4-(hydroxymethyl)-2,9-dimethyl-1-oxo-1,4,5,8,9,11-hexahydropyrido[4′,3′:3,4]pyrazolo[5,1-d][1,2,5]oxadiazepine-10(2H)-carboxamide]	1 to 100
C[C@H]1Cc2nn3c(c2CN1C(=O)Nc1ccc(F)c(Cl)c1)C(=O)N(C)O[C@@H](CO)C3 (stereo in doubt) [Compound 069_E2, (4R*,9S*)—N-(3-chloro-4-fluorophenyl)-4-(hydroxymethyl)-2,9-dimethyl-1-oxo-1,4,5,8,9,11-hexahydropyrido[4′,3′:3,4]pyrazolo[5,1-d][1,2,5]oxadiazepine-10(2H)-carboxamide]	1 to 100
C[C@@H]1Cc2nn3c(c2CN1C(=O)Nc1ccc(F)c(Cl)c1)C(=O)N(C)O[C@@H](CO)C3 (stereo in doubt) [Compound 069_E3, (4R*,9R*)—N-(3-chloro-4-fluorophenyl)-4-(hydroxymethyl)-2,9-dimethyl-1-oxo-1,4,5,8,9,11-hexahydropyrido[4′,3′:3,4]pyrazolo[5,1-d][1,2,5]oxadiazepine-10(2H)-carboxamide]	100 to 500
C[C@@H]1Cc2nn3c(c2CN1C(=O)Nc1ccc(F)c(Cl)c1)C(=O)N(C)O[C@H](CO)C3 (stereo in doubt) [Compound 069_E4, (4S*,9R*)—N-(3-chloro-4-fluorophenyl)-4-(hydroxymethyl)-2,9-dimethyl-1-oxo-1,4,5,8,9,11-hexahydropyrido[4′,3′:3,4]pyrazolo[5,1-d][1,2,5]oxadiazepine-10(2H)-carboxamide]	1 to 100
C[C@@H]1Cc2nn3c(c2CN1C(=O)Nc1ccc(F)c(C(F)(F)F)c1)C(=O)N(C)OC(CO)C3 (stereo in doubt) [Compound 082_E1, (4S*,9R)—N-(4-fluoro-3-(trifluoromethyl)phenyl)-4-(hydroxymethyl)-2,9-dimethyl-1-oxo-1,4,5,8,9,11-hexahydropyrido[4′,3′:3,4]pyrazolo[5,1-d][1,2,5]oxadiazepine-10(2H)-carboxamide]	1 to 100
C[C@@H]1Cc2nn3c(c2CN1C(=O)Nc1ccc(F)c(C#N)c1)C(=O)N(C)OC(CO)C3 (stereo in doubt) [Compound 084_E1, (4S*,9R)—N-(3-cyano-4-fluorophenyl)-4-(hydroxymethyl)-2,9-dimethyl-1-oxo-1,4,5,8,9,11-hexahydropyrido[4′,3′:3,4]pyrazolo [5,1-d][1,2,5]oxadiazepine-10(2H)-carboxamide]	1 to 100
C[C@@H]1Cc2nn3c(c2CN1C(=O)Nc1ccc(F)c(C(F)(F)F)c1)C(=O)N(C)OC(CF)C3 (stereo in doubt) [Compound 085_E1, (4S*,9R)—N-(4-fluoro-3-(trifluoromethyl)phenyl)-4-(fluoromethyl)-2,9-dimethyl-1-oxo-1,4,5,8,9,11-hexahydropyrido[4′,3′:3,4]pyrazolo[5,1-d][1,2,5]oxadiazepine-10(2H)-carboxamide]	1 to 100
Cc1cc(NC(=O)N2Cc3c(nn4c3C(=O)N(C)OC(CF)C4)C[C@H]2C)ccc1F (stereo in doubt) [Compound 086_E1, (4S*,9R)—N-(4-fluoro-3-methylphenyl)-4-(fluoromethyl)-2,9-dimethyl-1-oxo-1,4,5,8,9,11-hexahydropyrido[4′,3′:3,4]pyrazolo[5,1-d][1,2,5]oxadiazepine-10(2H)-carboxamide]	1 to 100
C[C@@H]1Cc2nn3c(c2CN1C(=O)Nc1ccc(F)c(C#N)c1)C(=O)N(C)OC(CF)C3 (stereo in doubt) [Compound 087_E1, (4S*,9R)—N-(3-cyano-4-fluorophenyl)-4-(fluoromethyl)-2,9-dimethyl-1-oxo-1,4,5,8,9,11-hexahydropyrido[4′,3′:3,4]pyrazolo[5,1-d][1,2,5]oxadiazepine-10(2H)-carboxamide]	1 to 100
